From ChEMBL document CHEMBL5230095, “Advances in research of spirodienone and its derivatives: Biological activities and synthesis methods” (Eur J Med Chem, 2020)
Converted amounts (≈) assume the structure as drawn.

Columns and labels:
in vitro = details: dog, MDCK cells, TI
Description: Therapeutic index, ratio of TC50 for MDCK cells to IC50 for antiviral activity against influenza A virus (A/Hanfang/359/95(H3N2))

[1] = (§1) Cytotoxicity against MDCK cells; type: toxicity, cell-based, Canis lupus familiaris; details: dog, MDCK cells; read-out: TC50 (the source's name)
Influenza A virus [2] = assay: microbe, parasite or virus in culture; details: H3N2, MDCK
Description: (§2) Antiviral activity against influenza A virus (A/Hanfang/359/95(H3N2)) infected in MDCK cells

K562 = assay: Cytotoxicity against human K562 cells; type: functional, cell-based
Jurkat = assay: Cytotoxicity against human Jurkat cells; type: functional, cell-based
Plasmodium falciparum = assay: Antimalarial activity against Plasmodium falciparum 3D7; type: functional, organism-based
Staphylococcus aureus = assay: Antibacterial activity against Staphylococcus aureus; type: functional
A549 = assay: Antiproliferative activity against human A549 cells; type: functional, cell-based
HL-60 = assay: Antiproliferative activity against human HL-60 cells; type: functional, cell-based
SW480 = assay: Antiproliferative activity against human SW480 cells; type: functional, cell-based
SMMC-7721 = assay: Antiproliferative activity against human SMMC-7721 cells; type: functional, cell-based
MDA-MB-231 = assay: Antiproliferative activity against human MDA-MB-231 cells; type: functional, cell-based
HeLa = assay: Antiproliferative activity against human HeLa cells; type: functional, cell-based
[3] = molecular target: DNA polymerase alpha catalytic subunit (Homo sapiens, UniProt P09884); assay: Inhibition of DNA polymerase alpha (unknown origin)
[4] = Antiinflammatory activity in human polymorphonuclear neutrophils assessed as reduction in LPS-stimulated IL-1beta release; type: functional, Polymorphonuclear neutrophil; set-up: scale not given: the % may be the effect or the level left
[5] = Antiinflammatory activity in human polymorphonuclear neutrophils assessed as reduction in LPS-stimulated IL-8 release; type: functional, Polymorphonuclear neutrophil; set-up: scale not given: the % may be the effect or the level left
[6] = Antiinflammatory activity in human polymorphonuclear neutrophils assessed as reduction in LPS-stimulated TNFalpha release; type: functional, Polymorphonuclear neutrophil; set-up: scale not given: the % may be the effect or the level left
MCF7 = assay: Antiproliferative activity against human MCF7 cells; type: functional, cell-based
Streptococcus pneumoniae = assay: Antibacterial activity against Streptococcus pneumoniae; type: functional
Enterococcus faecalis = assay: Antibacterial activity against Enterococcus faecalis; type: functional
[7] = Inhibition of yeast pre-mRNA splicing; set-up: species or system Saccharomyces cerevisiae
SF-268 = assay: Antiproliferative activity against human SF-268 cells; type: functional, cell-based
NCI-H460 = assay: Antiproliferative activity against human NCI-H460 cells; type: functional, cell-based
KB = assay: Antiproliferative activity against human KB cells; type: functional, cell-based
Neutrophil elastase = Neutrophil elastase (Homo sapiens, UniProt P08246); assay: Inhibition of human neutrophil elastase activity assessed as reduction in elastase release
MDCK = assay: as §1; type: toxicity, cell-based, Canis lupus familiaris; details: dog, mdck; read-out: TC50 (the source's name)
Influenza A virus [8] = details: mdck
Description: as §2

Sequence of DNA polymerase alpha catalytic subunit (P09884 whole entry): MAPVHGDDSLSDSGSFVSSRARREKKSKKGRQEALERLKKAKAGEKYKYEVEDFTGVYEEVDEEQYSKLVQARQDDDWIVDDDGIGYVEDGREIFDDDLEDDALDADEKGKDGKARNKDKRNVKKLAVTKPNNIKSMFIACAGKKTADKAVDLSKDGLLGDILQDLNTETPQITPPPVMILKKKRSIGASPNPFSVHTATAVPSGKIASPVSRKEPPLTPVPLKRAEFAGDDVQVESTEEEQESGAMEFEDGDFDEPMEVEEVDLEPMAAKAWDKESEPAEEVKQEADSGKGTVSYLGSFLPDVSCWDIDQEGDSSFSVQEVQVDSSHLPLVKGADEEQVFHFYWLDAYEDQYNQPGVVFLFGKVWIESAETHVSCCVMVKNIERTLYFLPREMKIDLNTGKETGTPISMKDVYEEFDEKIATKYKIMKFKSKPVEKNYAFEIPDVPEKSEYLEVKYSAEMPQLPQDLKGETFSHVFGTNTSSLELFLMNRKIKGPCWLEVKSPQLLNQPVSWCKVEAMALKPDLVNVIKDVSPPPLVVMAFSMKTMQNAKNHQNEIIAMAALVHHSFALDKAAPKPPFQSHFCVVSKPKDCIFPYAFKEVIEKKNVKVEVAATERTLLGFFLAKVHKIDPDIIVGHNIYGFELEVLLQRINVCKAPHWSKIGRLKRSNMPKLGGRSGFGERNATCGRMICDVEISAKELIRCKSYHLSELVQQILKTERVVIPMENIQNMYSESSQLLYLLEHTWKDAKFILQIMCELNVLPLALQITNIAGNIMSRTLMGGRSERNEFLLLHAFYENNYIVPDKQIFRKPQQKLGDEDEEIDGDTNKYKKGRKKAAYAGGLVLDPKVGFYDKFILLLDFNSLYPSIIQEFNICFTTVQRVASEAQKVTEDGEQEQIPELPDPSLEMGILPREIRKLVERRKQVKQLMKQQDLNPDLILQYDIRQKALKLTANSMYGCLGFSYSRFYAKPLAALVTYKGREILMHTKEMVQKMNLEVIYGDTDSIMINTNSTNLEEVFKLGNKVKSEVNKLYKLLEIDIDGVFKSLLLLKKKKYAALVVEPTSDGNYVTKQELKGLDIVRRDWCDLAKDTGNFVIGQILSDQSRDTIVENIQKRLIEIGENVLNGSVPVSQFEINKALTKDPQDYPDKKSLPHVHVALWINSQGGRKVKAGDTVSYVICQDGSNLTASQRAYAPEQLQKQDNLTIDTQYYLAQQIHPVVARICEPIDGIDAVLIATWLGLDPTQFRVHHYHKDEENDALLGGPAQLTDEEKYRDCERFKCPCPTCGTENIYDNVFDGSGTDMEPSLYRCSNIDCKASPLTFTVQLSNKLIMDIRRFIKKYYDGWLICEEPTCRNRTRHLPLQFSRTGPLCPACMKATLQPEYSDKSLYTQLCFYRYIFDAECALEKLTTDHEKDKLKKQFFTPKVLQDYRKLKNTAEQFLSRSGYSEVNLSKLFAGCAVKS
Sequence of Neutrophil elastase (P08246 whole entry): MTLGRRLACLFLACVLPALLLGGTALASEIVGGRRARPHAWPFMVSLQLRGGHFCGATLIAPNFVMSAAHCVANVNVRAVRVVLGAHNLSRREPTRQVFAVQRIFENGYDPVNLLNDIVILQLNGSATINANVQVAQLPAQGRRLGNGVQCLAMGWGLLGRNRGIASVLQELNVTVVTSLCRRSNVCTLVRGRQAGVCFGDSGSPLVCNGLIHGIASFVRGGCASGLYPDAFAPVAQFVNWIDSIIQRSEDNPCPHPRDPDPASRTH

SMILES: COC1=CC(=O)c2ccc(=O)oc2[C@]12[C@H](c1c(OC)cc(OC)c3ccc(=O)oc13)[C@H]1[C@H](c3c(OC)cc(OC)c4ccc(=O)oc34)C=C(C)C[C@]1(C)C[C@@H]2C=C(C)C
- selectivity ratio (in vitro): 7.9
- CC50 [1]: 77.6 µM
- IC50 (Influenza A virus [2]): 8.62 µM

SMILES: CCCCCCCCCCCCCC(=O)C1C(=O)N(Cc2ccccc2)C12C=CC(=O)C=C2 (stereo unspecified)
- IC50 (K562; Homo sapiens, K562): 5.47 µM
- IC50 (Jurkat; Homo sapiens, Jurkat): 2.88 µM
- IC50 (Plasmodium falciparum; Plasmodium falciparum, 3D7): 1.35 µM

SMILES: COC1=CC(=O)c2ccc(=O)oc2[C@]12[C@H](C=C(C)C)C[C@]1(C)CC(C)=C[C@H](c3c(OC)cc(OC)c4ccc(=O)oc34)[C@H]1[C@@H]2c1c(OC)cc(OC)c2ccc(=O)oc12
- selectivity ratio (in vitro): 3.3
- CC50 [1]: 57.7 µM
- IC50 (Influenza A virus [2]): 17.5 µM

SMILES: C/C(=C\C=C/[C@@H](C)/C=C(\C)C(=O)C1[C@@H]2[C@@H](CC(C)C)C(=O)N[C@@]23C[C@]1(O)c1cc(O)c(C)cc1C3=O)C(=O)O (stereo partly specified)
- MIC (Staphylococcus aureus): 31.2 µg/mL (≈ 58.2 µM)

SMILES: COC1=C[C@@]23CCN(C)[C@@H](Cc4c(CN5CCc6cc(OC)c(O)cc6[C@H]5Cc5ccc(O)cc5)cc(OC)c(O)c42)C3=CC1=O
- IC50 (A549): > 40000 µM
- IC50 (HL-60): > 40000 µM
- IC50 (SW480): > 40000 µM
- IC50 (SMMC-7721): > 40000 µM

SMILES: Cc1cc(C)c2c(c1)OCC(=O)N2c1nc(-c2ccc(Cl)cc2Cl)nn1-c1ccccc1
- IC50 (MDA-MB-231): 2.85 µM
- IC50 (HeLa): 25.2 µM

SMILES: COc1cc(O)c2c(c1)C1(C=C(OC(C)=O)C(=O)C=C1C)OC2=O (stereo unspecified)
- IC50 [3]: 28 µM

SMILES: O=C1C=CC2(C=C1)CCc1cc(O)cc(O[C@@H]3C[C@H](CO[C@@H]4OC[C@](O)(COC(=O)/C=C/c5ccc(O)c(O)c5)[C@@H]4O)[C@@H](O)[C@H](O)[C@H]3O)c12
- Activity [4]: 90%
- Activity [5]: 28%
- Activity [6]: 20%

SMILES: O=C1C=CC2(C=C1)CCc1cc(O)cc(O[C@@H]3C[C@H](CO)[C@@H](O)[C@H](O)[C@H]3O)c12
- Activity [4]: 105%
- Activity [5]: 70%
- Activity [6]: 38%

SMILES: O=C1C=CC2(C=C1)OCC(=O)N2c1nc(-c2cccs2)nn1-c1ccccc1
- IC50 (A549): 0.0252 µM
- IC50 (MCF7): 0.00411 µM
- IC50 (MDA-MB-231): 0.0008 µM
- IC50 (HeLa): 0.0453 µM

SMILES: CC(C)=CCC[C@]1(C)OC2=C(Cl)C(=O)c3c(O)cc(O)cc3[C@@]23CC(=C(C)C)C[C@@H]13
- MIC (Streptococcus pneumoniae): 8 µg/mL (≈ 18.6 µM)
- MIC (Enterococcus faecalis): 1 µg/mL (≈ 2.33 µM)
- MIC (Staphylococcus aureus): 1 µg/mL (≈ 2.33 µM)

SMILES: COC1=CC(=O)c2ccc(=O)oc2[C@@]12[C@H](C=C(C)C)C[C@]1(C)CC(C)=C[C@H](c3c(OC)cc(OC)c4ccc(=O)oc34)[C@H]1[C@@H]2c1c(OC)cc(OC)c2ccc(=O)oc12
- selectivity ratio (in vitro): 6.9
- CC50 [1]: 77.6 µM
- IC50 (Influenza A virus [2]): 11.1 µM

SMILES: C#CCCCCCCC(=O)C1C(=O)N(Cc2ccccc2)C12C=CC(=O)C=C2 (stereo unspecified)
- IC50 (K562; Homo sapiens, K562): 15.3 µM
- IC50 (Jurkat; Homo sapiens, Jurkat): 7.4 µM
- IC50 (Plasmodium falciparum; Plasmodium falciparum, 3D7): 7.7 µM

SMILES: COC1=CC2(C=CC1=O)CCC(=O)O2 (stereo unspecified)
- IC50 [7]: 3000 µM

SMILES: COc1cc(OC(C)=O)c2c(c1)C1(C=C(OC(C)=O)C(=O)C=C1C)OC2=O (stereo unspecified)
- IC50 [3]: 0.68 µM

SMILES: C/C1=C/[C@@H](C)/C=C(\C)C(=O)[C@@H](C)[C@@H]2[C@@H](C)C(=O)N[C@@]23C[C@]24O[C@](C)(C(=O)c5c(O)c(C)cc(c52)C3=O)C14 (stereo partly specified)
- MIC (Staphylococcus aureus): 62.5 µg/mL (≈ 124 µM)

SMILES: COC(=O)[C@@]1(C2C=CC(=O)C=C2)c2cc(O)cc(O)c2[C@@H](c2ccc(O)cc2)C(=O)c2cc(O)cc(O)c21
- IC50 (MCF7): 28 µM
- IC50 (SF-268): 29.2 µM
- IC50 (NCI-H460): 32.7 µM
- IC50 (KB): 33.2 µM
- IC50 (HeLa): 25.7 µM

SMILES: COc1cc2c(c3c1CCC(c1ccccc1)O3)C1C3C(c4ccc(O)c(C)c4OC)C(C(O)(OC)c4ccccc4)C14C(C=CC(=O)C4OC)OC3(c1ccccc1)O2 (stereo unspecified)
- IC50 (Neutrophil elastase): 6.53 µM

SMILES: CC(C)=CCC[C@]1(C)OC2=C(Cl)C(=O)C=C[C@@]23CC(=C(C)C)C[C@@H]13
- MIC (Streptococcus pneumoniae): > 64 µg/mL
- MIC (Enterococcus faecalis): > 64 µg/mL
- MIC (Staphylococcus aureus): > 64 µg/mL

SMILES: COC1=C[C@@H]2[C@@H]3Cc4c(CN5CCc6cc(OC)c(OC)c7c6[C@@H]5CC75C=CC(=O)C=C5)cc(OC)c(O)c4[C@]2(CCN3C)CC1=O
- IC50 (A549): 18500 µM
- IC50 (HL-60): 17400 µM
- IC50 (SW480): 18300 µM
- IC50 (SMMC-7721): 17100 µM

SMILES: O=C1CCC2(C=CC(=O)C(NC(=O)c3ccccc3)=C2)O1 (stereo unspecified)
- IC50 [7]: 600 µM

SMILES: CC1=C/[C@@H](C)/C=C(\C)[C@]2(O)[C@H](C)[C@@H]3[C@@H](C(C)C)C(=O)N[C@]34C(=O)c3cc(C)c(O)c(c3C(=O)[C@@H]42)C(=O)\C(C)=C\1
- MIC (Staphylococcus aureus): 31.2 µg/mL (≈ 58.7 µM)

SMILES: CCCCCCCCCCCCC/C(O)=C1\C(=O)N(Cc2ccccc2)CC12C=CC(=O)C=C2
- IC50 (K562; Homo sapiens, K562): 1.73 µM
- IC50 (Jurkat; Homo sapiens, Jurkat): 1.42 µM
- IC50 (Plasmodium falciparum; Plasmodium falciparum, 3D7): 2.29 µM

SMILES: COc1cc(O)cc2c1C(=O)C(Cl)=C1O[C@@](C)(CCC=C(C)C)[C@@H]3CC(=C(C)C)C[C@@]123
- MIC (Streptococcus pneumoniae): > 64 µg/mL
- MIC (Enterococcus faecalis): > 64 µg/mL
- MIC (Staphylococcus aureus): > 64 µg/mL

SMILES: COC1=CC(=O)c2ccc(=O)oc2[C@@]12[C@H](c1c(OC)cc(OC)c3ccc(=O)oc13)[C@H]1[C@H](c3c(OC)cc(OC)c4ccc(=O)oc34)C=C(C)C[C@]1(C)C[C@@H]2C=C(C)C
- selectivity ratio (in vitro): 1.9
- CC50 [1]: 19.2 µM
- IC50 (Influenza A virus [2]): 9.86 µM

SMILES: CC(=O)NC1=CC2(C=CC1=O)CC(NS(=O)(=O)c1ccc(C)cc1)C(=O)O2 (stereo unspecified)
- IC50 [7]: 1700 µM

SMILES: Cc1ccc(S(=O)(=O)NC2CC3(C=CC(=O)C(NC(=O)c4ccccc4)=C3)OC2=O)cc1 (stereo unspecified)
- IC50 [7]: 700 µM

SMILES: O=C1C=CC(=C2C(=O)c3cc(O)cc4c3[C@@](c3ccc(O)cc3)(C(=O)O4)c3cc(O)cc(O)c32)C=C1
- IC50 (MCF7): 99 µM
- IC50 (SF-268): > 100 µM
- IC50 (NCI-H460): > 100 µM
- IC50 (KB): > 100 µM
- IC50 (HeLa): > 100 µM

SMILES: CC(=O)NC1=CC2(C=CC1=O)CCC(=O)O2 (stereo unspecified)
- IC50 [7]: 800 µM

SMILES: COC1=CC(=O)c2ccc(=O)oc2C12C(C=C(C)C)CC1(C)CC(C)=CC(c3c(OC)cc(OC)c4ccc(=O)oc34)C1C2c1c(OC)cc(OC)c2ccc(=O)oc12 (racemic; form 1)
- CC50 (MDCK): 6.42 µM
- IC50 (Influenza A virus [2]): 3.13 µM

SMILES: COC1=CC(=O)c2ccc(=O)oc2C12C(C=C(C)C)CC1(C)CC(C)=CC(c3c(OC)cc(OC)c4ccc(=O)oc34)C1C2c1c(OC)cc(OC)c2ccc(=O)oc12 (racemic; form 2)
- IC50 (Influenza A virus [8]): 2.87 µM
- CC50 (MDCK): 25.9 µM

SMILES: CCCCCCCCCCCCN1C(=O)C(C2(OC)CCC3(C=CC(=O)C=C3)O2)C12C=CC(=O)C=C2 (stereo in doubt; 28)
- IC50 (K562; k562): 0.62 µM
- IC50 (Jurkat; jurkat): 0.35 µM
- IC50 (Plasmodium falciparum; Plasmodium falciparum, 3D7): 1.68 µM

SMILES: CCCCCCCCCCCCN1C(=O)C(C2(OC)CCC3(C=CC(=O)C=C3)O2)C12C=CC(=O)C=C2 (stereo in doubt; 29)
- IC50 (K562; k562): 0.18 µM
- IC50 (Jurkat; jurkat): 0.06 µM
- IC50 (Plasmodium falciparum): 0.91 µM

SMILES: C#CCCCCCCCCCCCN1C(=O)C(C2(OCC)CCC3(C=CC(=O)C=C3)O2)C12C=CC(=O)C=C2 (stereo in doubt; 30)
- IC50 (K562; Homo sapiens, K562): 0.32 µM
- IC50 (Jurkat; Homo sapiens, Jurkat): 0.14 µM
- IC50 (Plasmodium falciparum; Plasmodium falciparum, 3D7): 1.72 µM

SMILES: C#CCCCCCCCCCCCN1C(=O)C(C2(OCC)CCC3(C=CC(=O)C=C3)O2)C12C=CC(=O)C=C2 (stereo in doubt; 31)
- IC50 (K562; k562): 0.36 µM
- IC50 (Jurkat; jurkat): 0.15 µM
- IC50 (Plasmodium falciparum): 1.41 µM

SMILES: CCOC(=O)C1=C[C@@H](OC(CC)CC)[C@H](NC(C)=O)[C@@H](N)C1 [OSELTAMIVIR]
- selectivity ratio (in vitro): 910
- CC50 [1]: 3070 µM
- IC50 (Influenza A virus [2]): 3.38 µM

SMILES: O=c1c(O)c(-c2ccc(O)c(O)c2)oc2cc(O)cc(O)c12 [QUERCETIN]
- Activity [4]: 4%
- Activity [5]: 18%
- Activity [6]: 28%

SMILES: NC(=O)c1ncn([C@@H]2O[C@H](CO)[C@@H](O)[C@H]2O)n1 [RIBAVIRIN]
- selectivity ratio (in vitro): 771
- CC50 [1]: 4770 µM
- IC50 (Influenza A virus [2]): 6.19 µM
